One molecule from patent US20090104157A1, “UTILIZATION OF BACTERIOPHAGE TO CONTROL BACTERIAL CONTAMINATION IN FERMENTATION PROCESSES” (E. I. du Pont de Nemours and Company, priority 2007, published 2009) can be followed below.

The subject of experiment [1] is Lactobacillus plantarum ATCC 8014 in corn mash. The experiment in a line: Level of L. plantarum in inoculated corn mash by plating on MRS agar (Example 2). The format is cell-based. Particulars: 3 ppm. As to the method: Samples of corn mash were collected from a commercial fuel ethanol plant. The corn mash was collected immediately after liquefaction, prior to entry into fermentation. Corn mash samples were frozen upon arrival and defrosted for use in experiments. Lactobacillus plantarum ATCC 8014 was cultured overnight in MRS broth (Difco, Sparks, Md.). Samples of corn mash were inoculated with L. plantarum at approximately 10^4 CFU/ml. This level of bacterial contamination is common in fuel ethanol plants. L. plantarum bacteriophage (B-8014) were prepared and titered using the overlay method on MRS agar (as described in Example 1). One sample of corn mash received no treatment. A second sample was treated by the addition of 3 parts per million (ppm) of Penicillin G. Three additional samples were treated with phage at a bacteria to phage ratio of 1:1, 1:10, and 1:100. All mash samples were incubated at 33° C., the temperature at which commercial fermentation takes place. The level of bacteria remaining in the test samples was determined by decimal dilutions in phosphate-buffered saline followed by plating of these dilutions onto plates of MRS agar. Plates were incubated overnight at 33° C. and colonies were enumerated.

For the next experiment, the system named is L. plantarum ATCC 8014. In words: Growth of L. plantarum in MRS broth by optical density (Example 1). It counts as cell-based, Lactobacillus plantarum. To be noted: 1 ppm, after 40 hours of incubation. The text has this:
Lactobacillus plantarum is a bacterium commonly isolated from contaminated fuel ethanol fermentation. In this example, a spectrophotometer was used to quantify the growth of L. plantarum in laboratory media. The use of a spectrophotometer allowed rapid determination of bacterial levels by optical density. The optical density indicates the amount of light (at a wavelength of 450 nm) absorbed by a sample. High levels of bacterial growth in a sample well result in higher optical density.
L. plantarum ATCC 8014 was cultured overnight in MRS broth (available from Difco, Sparks, Md.) at 30° C. Stocks of L. plantarum ATCC 8014 bacteriophage (bacteriophage cocktail is referred to in the Examples as “B-8014”) were prepared and titered using the overlay method (Adams, M. H. The Bacteriophages, Interscience Publishers, New York, 1959) with MRS agar. Since bacteriophage (phage) are viruses, they are unable to replicate outside of their bacterial host. Therefore, to enumerate phage, cultures of host bacteria were prepared and mixed with dilutions of phage. These mixtures were placed onto a petri dish containing agar and incubated overnight. The presence of clear zones on “lawns” of bacteria indicated phage infection. These clear zones are known as “plaques” and therefore, phage levels are commonly referred to as plaque forming units per milliliter (PFU/ml). […]

In the case of `CC1(C)S[C@@H]2[C@H](NC(=O)Cc3ccccc3)C(=O)N2[C@H]1C(=O)O` [Penicillin G], the “effect on growth of L. plantarum” value in experiment [1] is “did not affect or control growth”. In experiment [1] (33° C.), the “Log CFU/ml at 0 hours” value worked out at 4.86 Log CFU/ml, the “Log CFU/ml at 24 hours” value stood at 9.09 Log CFU/ml and the “Log CFU/ml at 40 hours” value was 9.19 Log CFU/ml. Further, in the experiment on L. plantarum ATCC 8014, the “optical density at 450 nm compared with control wells” value was “higher” and the “reduction of growth of L. plantarum” value is “not effective”.
